These results are taken from US20120034193A1, “TREATMENT OF NEUROTROPHIC FACTOR MEDIATED DISORDERS” (priority 2009, published 2012).

For one series, the system named is BDNF mRNA. Nature of the series: BDNF mRNA expression in rat cortical neurones under basal conditions (rt RT-PCR). It counts as cell-based. Particulars: 30 nM. As to the method:
(§1) Rat cortical neurones were cultured by modification of a method previously described (Singer, et al., Neuroscience Letters, 1996, 212, pp. 13-16). Twelve days after the start of culturing, sarsasapogenin (30 nM), smilagenin (30 nM), 4-methylcatechol (0.5 mM), an inducer of NGF and BDNF release (Saporito et al., Experimental Neurology., 1993, 123, pp. 295-302; Nitta et al., Journal of Pharmacology and Experimental Therapeutics, 1999, 291, pp. 1276-1283) or vehicle (dimethyl sulfoxide, DMSO, 0.25%) were added for 1, 3 or 6 h. After incubation the total messenger ribonucleic acid (mRNA) was quantified using real time reverse transcription-polymerase chain reaction (rt RT-PCR).

A further series deals with trkB mRNA. Nature of the series: trkB mRNA expression in rat cortical neurones under basal conditions (rt RT-PCR). The series is classed as cell-based. Particulars: 30 nM. Here is the method: as §1
Series [1] relates to Rat spinal motor neurones. Nature of the series: Neuronal survival and neurite outgrowth in spinal motor neurones. The series is classed as cell-based. The following applies: 3 days. As to the method:
Rat spinal motor neurones were prepared according to a previously described method (Martinou et al, Neuron, 8, 737-744, 1992). Following 3 days of culturing with sarsasapogenin, smilagenin, vehicle (DMSO, 0.25%), Xaliproden, or BDNF, spinal cord motor neurones were washed twice in PBS, fixed in a cold solution of alcohol (95%) and acetic acid (5%) for 5 min and then rinsed 3 times in PBS. Neurones were stained using a monoclonal antibody anti β-tubulin and an anti mouse Immunoglobulin G. These antibodies stained neurone cell bodies (quantifying the neuroprotective effect) and neurites (quantifying the neurotrophic effect). The cell nuclei were stained by a fluorescent marker. After 1 h of incubation, cells were washed 3 times in PBS. […] A series of pictures were taken using a camera controlled by computer software. All the images were taken under the same conditions. Analyses of the number of cells labelled with anti β-tubulin antibodies and of the total number of cells (number of stained nuclei) were performed using LUCIA 6.0 software.

The subject of series [2] is rat primary cortical neurones. Nature of the series: Pre-treatment against glutamate-induced damage (LDH) in cortical neurones. The series is classed as cell-based. Particulars: for Neuronal survival (% of control): 24 h before and 24 h after glutamate 100 μM 10 min; for Toxicity at the plateau of activity: nanomolar concentration, cortical neurones in vitro. As to the method:
Exposure of rat primary cortical neurones to glutamate increases lactate dehydrogenase (LDH) activity measured 24 h after glutamate exposure, indicating significant neuronal damage. Rat cortical neurones were cultured by modification of a method previously described (Singer, et al., Neuroscience Letters, 1996, 212, pp. 13-16). On day 10 of culture, the medium was changed to a serum-free defined medium. On day 12, the cultures were washed and placed for 24 h in fresh medium containing test compound or vehicle (DMSO, 0.25%). On day 13 neurones were exposed to glutamate (100 μM; 10 min) at 37° C. The cultures were then washed with, and placed in, fresh medium supplemented with test compound or vehicle for a further 24 h before LDH was measured. Neuronal damage was assessed by measuring LDH activity in the media at 24 h after glutamate exposure.

Series [3] concerns Rat spinal motor neurones. Briefly: Reversal of glutamate-induced damage in spinal motor neurones. It counts as cell-based. As to the method:
The rat spinal motor neurones were prepared as detailed above. On day 10, the medium was removed and the cultures exposed to glutamate (4 μM) for 10 min at 37° C. in 5% CO2/95% air atmosphere in defined medium. After the glutamate exposure, cultures were washed with DMEM at 37° C. then placed in fresh culture medium containing sarsasapogenin, smilagenin, vehicle or BDNF. After 48 h, the extent of motor neurone damage was determined as detailed above. This Example develops the work reported in Example 8 of PCT patent application No. WO-A-03/082893.

Series [4] deals with Rat primary dopaminergic neurones. Nature of the series: Reversal of MPP+-induced damage in dopaminergic neurones. The series is classed as cell-based. Particulars: 30 nM for 48 h after MPP+ 2 μM 24 h. As to the method: Rat primary dopaminergic neurones were prepared as described above. On day 5, MPP^+ (2 μM) was added to the cultures for 24 h in culture medium at 37° C. in 5% CO2/95% air atmosphere. Exposure of rat primary dopaminergic neurones to MPP^+ (2 μM, 24 h) causes a significant decrease in the number of dopaminergic neurones compared to the control. On day 6 the medium was removed and fresh medium containing vehicle (DMSO, 0.25%), sarsasapogenin, smilagenin or a combinations of BDNF and GDNF was added. After 48 h, the extent of dopaminergic damage was determined as detailed above.

In series [5] the test system is Old Sprague Dawley (SD) rats. Briefly: Y-maze learning and memory in aged rats. The series is classed as in vivo, Rat. Particulars: 18 mg/kg/day oral; for Learning ability (correct response/total time): 2 months, aged 2.39, young 5.97; for Memory ability (correct response/total time): 3 months, aged 2.16, young 5.27; for Anxiety (Y-maze): up to 3 months. Here is the method: Old Sprague Dawley (SD) rats (20 month old) were orally administered sarsasapogenin or smilagenin (18 mg/kg/day) for 3 months. Young SD rats (4 month old) were used as healthy positive control and old SD rats (20 month old) were used as neurodegenerative control. A Y-maze was used to assess learning and memory, and was considered also a model of anxiety in light of the nature of the test that caused distress to the animal. On the floor of each arm of the Y-maze was an array of copper rods (2 mm×140 mm) to which an adjustable voltage electric current was applied when needed. Each arm was 450 mm long with a 15 W lamp at the end. Following 2 months of treatment each rat was trained for 7 consecutive days, once on each day. During each training session, a rat was put into one arm of the Y-maze and after 2 min an electrical current applied to the copper rods in the anti-clockwise arm and the lamp of the clockwise arm was illuminated, indicating the non-electrified area. If the rat went into the illuminated arm a correct response was recorded, otherwise a wrong response was recorded. This stimulation-response test was repeated 20 times each day, with a pause of 5 s between each test. The number of correct responses and the total time period for the 20 tests were recorded. A quotient of the number of correct responses divided by the total response time was calculated and used as an index for learning ability, with the higher the quotient the greater the learning ability. One month after the learning test (3 months of treatment) the Y-maze test was carried out again and the quotient obtained was used as an index for memory ability. At the end of the treatment the rats were killed and the brains removed for quantification of BDNF using an ELISA (data of BDNF presented in Example 3 above).

The mark [6] stands for this setting: 0.03 nM for 48 h after glutamate 4 μM 10 min.
Where [7] appears, read: 3 nM for 48 h after glutamate 4 μM 10 min.
[8] abbreviates: 300 nM for 48 h after glutamate 4 μM 10 min.

With `C[C@H]1CC[C@@]2(OC1)O[C@H]1C[C@H]3[C@@H]4CC[C@@H]5C[C@@H](O)CC[C@]5(C)[C@H]4CC[C@]3(C)[C@H]1[C@@H]2C` [Sarsasapogenin, sarsasapogenin], the results for the “BDNF mRNA, % increase above control” value in the series on BDNF mRNA (1 h), in the series on BDNF mRNA (3 h) and with BDNF mRNA (6 h) were “No increase”, 22% and “No increase”, respectively. The “trkB mRNA, % increase above control” value in the series with trkB mRNA (1 h) is “No increase”; in the series with trkB mRNA (3 h), 33%; in the series on trkB mRNA (6 h), “No increase”. Further, the “Neurite outgrowth (% of control)” value in series [1] (30 nM) was 129.98 ± 5.47 % of control; in series [1] (100 nM), 137.38 ± 7.93 % of control. Further, the “Neuronal survival (% of control)” value in series [1] (30 nM) is reported as 119.14 ± 3.33 % of control; in series [1] (100 nM), 117.87 ± 3.63 % of control; in series [2] (1 nM) it was 76.88 ± 2.79 % of control; in series [2] (3 nM), 77.23 ± 2.62 % of control; in series [2] (10 nM), 73.50 ± 3.05 % of control; in series [2] (30 nM), 78.91 ± 2.97 % of control. Also, the “Neuronal survival (% of control)” value in series [2] (100 nM) is on record as 76.30 ± 4.15 % of control; in series [3] (setting [6]), 101.09 ± 4.12 % of control; in series [3] (setting [7]), 108.10 ± 3.56 % of control; in series [3] (setting [8]), 120.43 ± 7.46 % of control; in series [4], 104.30 ± 5.63 % of control. Also, in series [2], the “Toxicity at the plateau of activity” value was “without causing any toxicity”. Further, the “Learning ability (correct response/total time)” value in series [5] is 5.02 ± 0.50 correct response/total time. In addition, in series [5], the “Memory ability (correct response/total time)” value is on record as 4.66 ± 0.34 correct response/total time. Besides, the “Anxiety (Y-maze)” value in series [5] is “reduce the anxiety”.

Turning to `C[C@@H]1CC[C@@]2(OC1)O[C@H]1C[C@H]3[C@@H]4CC[C@@H]5C[C@@H](O)CC[C@]5(C)[C@H]4CC[C@]3(C)[C@H]1[C@@H]2C` [Smilagenin, smilagenin], the “BDNF mRNA, % increase above control” value was “No increase” with BDNF mRNA (1 h), 40% with BDNF mRNA (3 h) and “No increase” in the series with BDNF mRNA (6 h). Moreover, the “trkB mRNA, % increase above control” value was 21% in the series on trkB mRNA (1 h), 55% in the series on trkB mRNA (3 h) and “No increase” with trkB mRNA (6 h). The “Neurite outgrowth (% of control)” value in series [1] (30 nM) is given as 163.66 ± 9.28 % of control; in series [1] (100 nM) it was 164.75 ± 5.57 % of control. In addition, the “Neuronal survival (% of control)” value was 120.11 ± 2.92 % of control in series [1] (30 nM); 121.21 ± 2.75 % of control in series [1] (100 nM); 81.53 ± 1.66 % of control in series [2] (1 nM); 78.19 ± 1.85 % of control in series [2] (3 nM); 82.50 ± 1.00 % of control in series [2] (10 nM); 89.86 ± 3.55 % of control in series [2] (30 nM). The “Neuronal survival (% of control)” value in series [2] (100 nM) was 82.45 ± 2.18 % of control; in series [3] (setting [6]), 90.98 ± 2.46 % of control; in series [3] (setting [7]), 101.53 ± 3.18 % of control; in series [3] (setting [8]), 106.61 ± 4.24 % of control; in series [4], 113.44 ± 4.62 % of control. For the same compound, the “Toxicity at the plateau of activity” value in series [2] is given as “without causing any toxicity”. In series [5], the “Learning ability (correct response/total time)” value was 4.81 ± 0.32 correct response/total time. Further, the “Memory ability (correct response/total time)” value in series [5] is listed as 4.58 ± 0.26 correct response/total time. For the same compound, in series [5], the “Anxiety (Y-maze)” value is recorded as “reduce the anxiety”.
